IC50 and inhibition data for 25 molecules are collected here from patent publication US20230278983A1, “INDOLE DERIVATIVES AND USES THEREOF FOR TREATING A CANCER” (Universite Claude Bernard Lyon 1, priority 2020, published 2023).

The structures appear in SMILES notation. pIC50: −log10 of the molar value.

Sequence of CK2 (P68400 whole entry): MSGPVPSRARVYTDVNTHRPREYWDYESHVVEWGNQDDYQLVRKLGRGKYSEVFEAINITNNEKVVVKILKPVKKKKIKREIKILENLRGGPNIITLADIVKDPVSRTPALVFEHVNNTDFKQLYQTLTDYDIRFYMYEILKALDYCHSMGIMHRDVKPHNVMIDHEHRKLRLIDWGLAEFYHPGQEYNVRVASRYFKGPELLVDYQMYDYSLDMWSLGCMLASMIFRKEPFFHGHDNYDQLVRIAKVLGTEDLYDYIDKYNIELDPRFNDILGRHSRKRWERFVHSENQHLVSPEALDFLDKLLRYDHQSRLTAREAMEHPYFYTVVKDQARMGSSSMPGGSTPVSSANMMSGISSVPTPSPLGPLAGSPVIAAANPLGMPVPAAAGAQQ

One experiment concerns the target CK2 (Homo sapiens (Human), UniProt P68400). Description: Radiometric CK2 kinase assay. The format is biochemical.
Settings: not given
As for `CC(C)COC(=O)c1[nH]c2ccc(F)cc2c1-c1cn(CC2CCN(CCNS(=O)(=O)c3ccc(-c4cn[nH]c4)cc3)CC2)nn1` [AB1032, isobutyl 3-(1-((1-(2-((4-(1H-pyrazol-4-yl)phenyl)sulfonamido)ethyl)piperidin-4-yl)methyl)-1H-1,2,3-triazol-4-yl)-5-fluoro-1H-indole-2-carboxylate], the pIC50 is 6.70.
`CC(C)COC(=O)c1[nH]c2ccc(F)cc2c1-c1cn(CC2CCN(CCNS(=O)(=O)c3ccc(C4=CCC(F)(F)CC4)cc3)CC2)nn1` [AB1070, isobutyl 3-(1-((1-(2-((4′,4′-difluoro-2′,3′,4′,5′-tetrahydro-[1,1′-biphenyl])-4-sulfonamido)ethyl)piperidin-4-yl)methyl)-1H-1,2,3-triazol-4-yl)-5-fluoro-1H-indole-2-carboxylate] gave a pIC50 of 6.70.
On the same count and under the same terms, for `CC(C)COC(=O)c1[nH]c2ccc(F)cc2c1-c1cn(CC2CCN(CCNS(=O)(=O)c3ccc(-c4ccoc4)cc3)CC2)nn1` [AB1071, isobutyl 5-fluoro-3-(1-((1-(2-((4-(furan-3-yl)phenyl)sulfonamido)ethyl)piperidin-4-yl)methyl)-1H-1,2,3-triazol-4-yl)-1H-indole-2-carboxylate] the value was 7.19.
Still for that read-out and setting: next, `CC(C)COC(=O)c1[nH]c2ccc(F)cc2c1-c1cn(CC2CCN(CCNS(=O)(=O)c3ccc4c(c3)OCCCO4)CC2)nn1` [AB1072, isobutyl 3-(1-((1-(2-((3,4-dihydro-2H-benzo[b][1,4]dioxepine)-7-sulfonamido)ethyl)piperidin-4-yl)methyl)-1H-1,2,3-triazol-4-yl)-5-fluoro-1H-indole-2-carboxylate]: 7.00.
On the same count and under the same terms, for `CC(C)COC(=O)c1[nH]c2ccc(F)cc2c1-c1cn(CC2CCN(CCNS(=O)(=O)c3ccc(-c4cccnc4N4CCCC4)cc3)CC2)nn1` [AB1073, isobutyl 5-fluoro-3-(1-((1-(2-((4-(2-(pyrrolidin-1-yl)pyridin-3-yl)phenyl)sulfonamido)ethyl)piperidin-4-yl)methyl)-1H-1,2,3-triazol-4-yl)-1H-indole-2-carboxylate] the value was 7.74; for `CC(C)COC(=O)c1[nH]c2ccc(F)cc2c1-c1cn(CC2CCN(CCNS(=O)(=O)c3ccc(C4=CCOCC4)cc3)CC2)nn1` [AB1074, isobutyl 3-(1-((1-(2-((4-(3,6-dihydro-2H-pyran-4-yl)phenyl)sulfonamido)ethyl)piperidin-4-yl)methyl)-1H-1,2,3-triazol-4-yl)-5-fluoro-1H-indole-2-carboxylate], 7.16.
Turning to `Cc1noc(C)c1-c1ccc(S(=O)(=O)NCCN2CCC(Cn3cc(-c4c(C(=O)OCC(C)C)[nH]c5ccc(F)cc45)nn3)CC2)cc1` [AB1130, isobutyl 3-(1-((1-(2-((4-(3,5-dimethylisoxazol-4-yl)phenyl)sulfonamido)ethyl)piperidin-4-yl)methyl)-1H-1,2,3-triazol-4-yl)-5-fluoro-1H-indole-2-carboxylate], the pIC50 is 7.31.
The same measure, in the same setting: next, `CC(C)COC(=O)c1[nH]c2ccc(F)cc2c1-c1cn(CC2CCN(CCNS(=O)(=O)c3ccc(-c4cccnc4Cl)cc3)CC2)nn1` [AB1133, isobutyl 3-(1-((1-(2-((4-(2-chloropyridin-3-yl)phenyl)sulfonamido)ethyl)piperidin-4-yl)methyl)-1H-1,2,3-triazol-4-yl)-5-fluoro-1H-indole-2-carboxylate]: 7.59; `CC(=O)c1[nH]c2ccc(F)cc2c1-c1cn(CC2CCN(CCNS(=O)(=O)c3ccc(CC(C)C)cc3)CC2)nn1` [AB1135, N-(2-(4-((4-(2-acetyl-5-fluoro-1H-indol-3-yl)-1H-1,2,3-triazol-1-yl)methyl)piperidin-1-yl)ethyl)-4-isobutylbenzenesulfonamide]: 7.32.
Same read-out and setting: for `CCCCC(=O)c1[nH]c2ccc(F)cc2c1-c1cn(CC2CCN(CCNS(=O)(=O)c3ccc(CC(C)C)cc3)CC2)nn1` [AB1145, N-(2-(4-((4-(5-fluoro-2-pentanoyl-1H-indol-3-yl)-1H-1,2,3-triazol-1-yl)methyl)piperidin-1-yl)ethyl)-4-isobutylbenzenesulfonamide] the value was 6.89; for `COc1cccc(OC)c1-c1ccc(S(=O)(=O)NCCN2CCC(Cn3cc(-c4c(C(=O)OCC(C)C)[nH]c5ccc(F)cc45)nn3)CC2)cc1` [AB1206, isobutyl 3-(1-((1-(2-((2′,6′-dimethoxy-[1,1′-biphenyl])-4-sulfonamido)ethyl)piperidin-4-yl)methyl)-1H-1,2,3-triazol-4-yl)-5-fluoro-1H-indole-2-carboxylate], 7.80.
Molecule `CC(C)COC(=O)c1[nH]c2ccc(F)cc2c1-c1cn(CC2CCN(CCNS(=O)(=O)c3ccc(-c4c(F)cccc4F)cc3)CC2)nn1` [AB1208, isobutyl 3-(1-((1-(2-((2′,6′-difluoro-[1,1′-biphenyl])-4-sulfonamido)ethyl)piperidin-4-yl)methyl)-1H-1,2,3-triazol-4-yl)-5-fluoro-1H-indole-2-carboxylate] showed a pIC50 of 7.35.
On the same count and under the same terms, next, `CC(C)COC(=O)c1[nH]c2ccc(F)cc2c1-c1cn(CC2CCN(CCNS(=O)(=O)c3ccc(-c4ccccc4N(C)C)cc3)CC2)nn1` [AB1209, isobutyl 3-(1-((1-(2-((2′-(dimethylamino)-[1,1′-biphenyl])-4-sulfonamido)ethyl)piperidin-4-yl)methyl)-1H-1,2,3-triazol-4-yl)-5-fluoro-1H-indole-2-carboxylate]: 7.15.

Staying with this experiment, now noted: compound at 0.05 μM; ATP 10 μM.
`COc1ccccc1-c1ccc(S(=O)(=O)NCCN2CCC(Cn3cc(-c4c(C(=O)OCC(C)C)[nH]c5ccc(F)cc45)nn3)CC2)cc1` [AB1205, isobutyl 5-fluoro-3-(1-((1-(2-((2′-methoxy-[1,1′-biphenyl])-4-sulfonamido)ethyl)piperidin-4-yl)methyl)-1H-1,2,3-triazol-4-yl)-1H-indole-2-carboxylate] showed an inhibition at 0.05 µM of 59%.
Still for that read-out and setting: for `CC(C)COC(=O)c1[nH]c2ccc(F)cc2c1-c1cn(CC2CCN(CCNS(=O)(=O)c3ccc(-c4cccnc4F)cc3)CC2)nn1` [AB1207, isobutyl 5-fluoro-3-(1-((1-(2-((4-(2-fluoropyridin-3-yl)phenyl)sulfonamido)ethyl)piperidin-4-yl)methyl)-1H-1,2,3-triazol-4-yl)-1H-indole-2-carboxylate] the value was 61%.
Still for that read-out and setting: next, `O=C(c1[nH]c2ccc(F)cc2c1-c1cn(CC2CCN(CCNS(=O)(=O)c3ccc(-c4cccnc4Cl)cc3)CC2)nn1)C1CC1` [AB1232, 4-(2-chloropyridin-3-yl)-N-(2-(4-((4-(2-(cyclopropanecarbonyl)-5-fluoro-1H-indol-3-yl)-1H-1,2,3-triazol-1-yl)methyl)piperidin-1-yl)ethyl)benzenesulfonamide]: 16%; `CCCC(=O)c1[nH]c2ccc(F)cc2c1-c1cn(CC2CCN(CCNS(=O)(=O)c3ccc(-c4cccnc4Cl)cc3)CC2)nn1` [AB1233, N-(2-(4-((4-(2-butyryl-5-fluoro-1H-indol-3-yl)-1H-1,2,3-triazol-1-yl)methyl)piperidin-1-yl)ethyl)-4-(2-chloropyridin-3-yl)benzenesulfonamide]: 17%.

The same experiment, now with this note: compound at 0.10 μM; ATP 10 μM.
The molecule `CC(C)Cc1ccc(S(=O)(=O)NCCN2CCC(Cn3cc(-c4c(C(=O)N5CCOCC5)[nH]c5ccc(F)cc45)nn3)CC2)cc1` [AB1132, N-(2-(4-((4-(5-fluoro-2-(morpholine-4-carbonyl)-1H-indol-3-yl)-1H-1,2,3-triazol-1-yl)methyl)piperidin-1-yl)ethyl)-4-isobutylbenzenesulfonamide] had an inhibition at 0.1 µM of 4%.
`CC(C)COC(=O)c1[nH]c2ccc(F)cc2c1-c1cn(CC2CCN(CCNS(=O)(=O)c3ccc(-c4ccc(C#N)cc4)cc3)CC2)nn1` [AB1134, isobutyl 3-(1-((1-(2-((4′-cyano-[1,1′-biphenyl])-4-sulfonamido)ethyl)piperidin-4-yl)methyl)-1H-1,2,3-triazol-4-yl)-5-fluoro-1H-indole-2-carboxylate] had an inhibition at 0.1 µM of 5%.
Still for that read-out and setting: for `CC(C)C(=O)c1[nH]c2ccc(F)cc2c1-c1cn(CC2CCN(CCNS(=O)(=O)c3ccc(-c4cccnc4Cl)cc3)CC2)nn1` [AB1282, 4-(2-chloropyridin-3-yl)-N-(2-(4-((4-(5-fluoro-2-isobutyryl-1H-indol-3-yl)-1H-1,2,3-triazol-1-yl)methyl)piperidin-1-yl)ethyl)benzenesulfonamide] the value was 15%; for `CC(C)CC(=O)c1[nH]c2ccc(F)cc2c1-c1cn(CC2CCN(CCNS(=O)(=O)c3ccc(-c4cccnc4Cl)cc3)CC2)nn1` [AB1284, 4-(2-chloropyridin-3-yl)-N-(2-(4-((4-(5-fluoro-2-(3-methylbutanoyl)-1H-indol-3-yl)-1H-1,2,3-triazol-1-yl)methyl)piperidin-1-yl)ethyl)benzenesulfonamide], 15%.

The experiment is the same for the next values; noted with them: inhibition of CK2 activity; ATP 10 μM.
With `CC(C)COC(=O)c1[nH]c2ccc(F)cc2c1-c1cn(CC2CCN(CCNS(=O)(=O)Cc3cccc(Br)c3)CC2)nn1` [AB1031, isobutyl 3-(1-((1-(2-(((3-bromophenyl)methyl)sulfonamido)ethyl)piperidin-4-yl)methyl)-1H-1,2,3-triazol-4-yl)-5-fluoro-1H-indole-2-carboxylate], the pIC50 is 6.82.
Same read-out and setting: for `CC(C)COC(=O)c1[nH]c2ccc(F)cc2c1-c1cn(CC2CCN(CCNS(=O)(=O)c3ccc(-c4ccccc4CN4CCOCC4)cc3)CC2)nn1` [AB1075] the value was 7.10; for `Cc1ccc(CS(=O)(=O)NCCN2CCC(Cn3cc(-c4c(C(=O)OCC(C)C)[nH]c5ccc(F)cc45)nn3)CC2)cc1` [AB1210, isobutyl 5-fluoro-3-(1-((1-(2-((p-tolylmethyl)sulfonamido)ethyl)piperidin-4-yl)methyl)-1H-1,2,3-triazol-4-yl)-1H-indole-2-carboxylate], 7.07; for `CC(C)Cc1ccc(S(=O)(=O)NCCN2CCC(Cn3cc(-c4c(C=O)[nH]c5ccc(F)cc45)nn3)CC2)cc1` [AB1235, N-(2-(4-((4-(5-fluoro-2-formyl-1H-indol-3-yl)-1H-1,2,3-triazol-1-yl)methyl)piperidin-1-yl)ethyl)-4-isobutylbenzenesulfonamide], 7.05.
